Converted amounts (≈) assume the structure as drawn.
Tests used:
Liver microsomes [1] = conditions: human, 10 min, 300 µM
Description: Metabolic stability of the compound in human liver microsomes assessed as stability rate per mg of protein at 300 uM after 10 mins by LC-MS/MS analysis in presence of NADPH

[2] = Aqueous solubility of the compound; format: physicochemical
Liver = conditions: mouse, microsomes, 10 min, 300 µM
Description: Metabolic stability of the compound in mouse liver microsomes assessed as stability rate per mg of protein at 300 uM after 10 mins by LC-MS/MS analysis in presence of NADPH

[3] = molecular target: T1, 11-beta-hydroxysteroid dehydrogenase 1 (Mus musculus, UniProt P50172); experiment: Inhibition of mouse 11beta-HSD1
Liver microsomes [4] = conditions: rat, 10 min, 300 µM
Description: Metabolic stability of the compound in rat liver microsomes assessed as stability rate per mg of protein at 300 uM after 10 mins by LC-MS/MS analysis in presence of NADPH

[5] = Tmax in Balb/C mouse at 10 umol/kg, po; format: ADME, organism-based; conditions: in vivo
[6] = AUC (0 to 8 hrs) in Balb/C mouse at 10 umol/kg, po; format: ADME, organism-based; design: time < 8 hr, dose 10 umol/kg, route oral; conditions: plasma
[7] = molecular target: T1, 11-beta-hydroxysteroid dehydrogenase 1; experiment: Inhibition of 11beta-HSD1 in mouse 3T3L1 cells; format: cell-based, 3T3-L1
[8] = Cmax in Balb/C mouse at 10 umol/kg, po; format: ADME, organism-based; design: dose 10 umol/kg, route oral; conditions: in vivo
[9] = molecular target: T2, 11-beta-hydroxysteroid dehydrogenase 1 (Homo sapiens, UniProt P28845); experiment: Inhibition of human 11beta-HSD1 expressed in HEK293 cells assessed as conversion of [3H]-cortisone to [3H]-cortisol by scintillation plate reader; format: cell-based
[10] = Inhibition of cynomolgus monkey 11beta-HSD1; design: species or system Macaca fascicularis
[11] = molecular target: T2, 11-beta-hydroxysteroid dehydrogenase 1; experiment: Inhibition of 11beta-HSD1 in human HEK cells; format: cell-based, HEK293
11β-HSD1 (Mus musculus) = conditions: Homo sapiens
[12] = tested on: UDP-glucuronosyltransferase (Mus musculus); experiment: in vitro; conditions: human, liver microsomes
[13] = molecular target: T3, 11-beta-hydroxysteroid dehydrogenase type 2 (Homo sapiens, UniProt P80365); experiment: Inhibition of 11beta-HSD2
T3 sequence (P80365 whole entry): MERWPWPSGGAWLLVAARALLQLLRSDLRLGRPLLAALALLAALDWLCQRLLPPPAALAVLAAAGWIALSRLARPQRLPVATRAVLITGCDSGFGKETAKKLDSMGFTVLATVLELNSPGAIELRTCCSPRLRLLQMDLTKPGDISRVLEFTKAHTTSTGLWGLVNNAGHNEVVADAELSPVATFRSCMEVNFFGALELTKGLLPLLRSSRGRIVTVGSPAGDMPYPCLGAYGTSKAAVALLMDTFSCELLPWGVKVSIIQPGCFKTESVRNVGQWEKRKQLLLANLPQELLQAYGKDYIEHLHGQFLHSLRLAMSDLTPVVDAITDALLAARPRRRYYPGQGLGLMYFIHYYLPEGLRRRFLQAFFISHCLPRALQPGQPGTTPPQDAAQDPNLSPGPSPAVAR

T2 sequence (P28845 whole entry): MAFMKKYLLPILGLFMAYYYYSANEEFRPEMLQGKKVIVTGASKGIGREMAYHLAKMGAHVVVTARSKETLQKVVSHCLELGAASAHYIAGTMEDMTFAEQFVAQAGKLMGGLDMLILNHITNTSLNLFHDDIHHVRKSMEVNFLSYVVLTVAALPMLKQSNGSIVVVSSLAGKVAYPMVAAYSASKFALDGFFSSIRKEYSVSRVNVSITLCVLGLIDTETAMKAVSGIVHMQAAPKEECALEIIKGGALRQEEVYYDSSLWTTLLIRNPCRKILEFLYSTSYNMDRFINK
T1 sequence (P50172 whole entry): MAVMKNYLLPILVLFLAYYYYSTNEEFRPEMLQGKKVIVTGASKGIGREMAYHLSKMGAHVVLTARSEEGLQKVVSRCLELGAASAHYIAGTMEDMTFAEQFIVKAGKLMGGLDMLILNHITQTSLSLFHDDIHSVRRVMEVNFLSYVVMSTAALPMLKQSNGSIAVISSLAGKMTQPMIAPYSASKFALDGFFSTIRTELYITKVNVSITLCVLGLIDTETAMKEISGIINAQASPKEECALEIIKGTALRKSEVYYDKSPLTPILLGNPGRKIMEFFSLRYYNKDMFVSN

Stability (Liver microsomes [1]) | solubility [2] [µg/mL] | Stability (Liver) | IC50 [3] [nM] | Stability (Liver microsomes [4]) | SMILES | also measured
0.15 nmol/min | 7 (≈ 21.8 µM) | 0.23 nmol/min | 6 | 0.25 nmol/min | N#Cc1ccccc1CSc1nc(O)c(C#N)c2c1CCCC2 | 
 |  |  | 4350 |  | N#Cc1c2c(c(-c3ccccc3)[nH]c1=O)CCCC2 | 
0.04 nmol/min | 38 (≈ 118 µM) | 0.05 nmol/min | 10 | 0.05 nmol/min | N#Cc1ncccc1CSc1nc(O)c(C#N)c2c1CCCC2 | 
0.27 nmol/min |  | 0.3 nmol/min | 9250 | 0.3 nmol/min | Oc1cc2c(c(SCc3ccccc3Cl)n1)CCCC2 | 
 |  |  | 2270 |  | Oc1nc(SCc2ccccc2Cl)c2c(c1Br)CCCC2 | 
 |  |  | 9 |  | COc1ccccc1CSc1nc(O)c(C#N)c2c1CCCC2 | 
0 nmol/min | 1 (≈ 2.74 µM) | 0 nmol/min | 3 | Unstable | N#Cc1c2c(c(SCc3c(Cl)cccc3Cl)[nH]c1=O)CCCC2 | 
0.18 nmol/min | 1 (≈ 2.9 µM) | 0.27 nmol/min | 6 | 0.24 nmol/min | N#Cc1c(O)nc(SCCc2ccccc2Cl)c2c1CCCC2 | 
0 nmol/min | 32 (≈ 85.5 µM) | 0.11 nmol/min | 10 | 0.19 nmol/min | CS(=O)(=O)c1ccccc1CSc1nc(O)c(C#N)c2c1CCCC2 | 
0.05 nmol/min | 2 (≈ 6.08 µM) | 0.02 nmol/min | 21 | 0.04 nmol/min | N#Cc1c(=O)[nH]c(OCc2ccccc2Cl)c2cc(F)ccc12 | Tmax [5]: 4 h; AUC(0-t) at 8 h [6]: 12 µM·h; IC50 [7]: 2160 nM; Cmax [8]: 2300 nM
0.12 nmol/min |  | 0.08 nmol/min | 10 | 0.05 nmol/min | N#Cc1c(=O)[nH]c(SCc2ccccc2Cl)c2c(F)cccc12 | 
 |  |  | 58 |  | N#Cc1c(O)nc(SCc2ccccc2Cl)nc1-c1ccccc1 | Tmax [5]: 1 h; IC50 [9]: 27 nM; AUC(0-t) at 8 h [6]: 37 µM·h; IC50 [10]: 53 nM; IC50 [7]: 2850 nM; Cmax [8]: 7100 nM; IC50 [11]: 1100 nM; IC50 (11β-HSD1 (Mus musculus)): 58 nM; half-life [12]: > 3.33 h
0.04 nmol/min |  | 0 nmol/min | 50 | 0.07 nmol/min | N#Cc1c(O)nc(SCc2ccccc2)c2c1-c1ccccc1CC2 | IC50 [9]: 5 nM; IC50 [13]: 386 nM
 |  |  | 16 |  | N#Cc1c(O)nc(SCc2ccccc2)c2c1CCCC2 | 
0.07 nmol/min |  | 0.12 nmol/min | 267 | 0.14 nmol/min | N#Cc1c(O)nc(S(=O)(=O)Cc2ccccc2Cl)c2c1CCCC2 | 
Unstable | 1 (≈ 3.18 µM) | Unstable | 6 | Unstable | N#Cc1c(O)nc(OCc2ccccc2Cl)c2c1CCCC2 | 
0 nmol/min | 3 (≈ 8.92 µM) | 0.02 nmol/min | 24 | 0.02 nmol/min | N#Cc1ncccc1CSc1nc(O)c(C#N)c2ccc(F)cc12 | 

Stability (Liver microsomes [1]) | solubility [2] [µg/mL] | Stability (Liver) | IC50 [3] [nM] | Stability (Liver microsomes [4]) | SMILES | also measured
0.09 nmol/min | 1 (≈ 3.02 µM) | 0.3 nmol/min | 25 | 0.3 nmol/min | N#Cc1c(O)nc(SCc2ccc(Cl)cc2)c2c1CCCC2 | 
0.24 nmol/min |  | 0.08 nmol/min | 7 | 0.13 nmol/min | N#Cc1c(O)nc(SCc2ccccc2Cl)c2cccc(F)c12 | 
0.12 nmol/min | 8 (≈ 24 µM) | 0.07 nmol/min | 21 | 0.04 nmol/min | N#Cc1c(O)nc(SCc2ccccc2Cl)c2c1CCOC2 | 
0.09 nmol/min | 6 (≈ 18.1 µM) | 0.17 nmol/min |  | 0.16 nmol/min | N#Cc1c(O)nc(SCc2ccccc2Cl)c2c1CCCC2 | Tmax [5]: 1 h; AUC(0-t) at 8 h [6]: 0.2 µM·h; IC50 [10]: 1 nM; Cmax [8]: 30 nM; half-life [12]: < 0.0167 h
 | 1 (≈ 3.02 µM) |  | 39 |  | N#Cc1c(O)nc(SCc2cccc(Cl)c2)c2c1CCCC2 | 
0.25 nmol/min | 8 (≈ 22.7 µM) | 0.05 nmol/min | 62 | 0.04 nmol/min | N#Cc1ccc2c(C#N)c(O)nc(SCc3ccccc3Cl)c2c1 | 
0.19 nmol/min | 1 (≈ 2.46 µM) | 0.18 nmol/min | 3830 | 0.3 nmol/min | N#Cc1ccc(-c2c(O)nc(SCc3ccccc3Cl)c3c2CCCC3)cc1 | 
 |  |  | 145 |  | N#Cc1c(O)nc(SCc2ccccc2-c2ccccc2)c2c1CCCC2 | 
0.08 nmol/min |  | 0.04 nmol/min | 4350 | 0 nmol/min | N#Cc1c(O)nc(SCc2ccccc2Cl)c2c1CCN(Cc1ccccc1)C2 | 
0.07 nmol/min | 1 (≈ 3.16 µM) | 0.17 nmol/min | 95 | 0.15 nmol/min | N#Cc1c(O)nc(Sc2ccccc2Cl)c2c1CCCC2 | 
0.03 nmol/min |  | 0.12 nmol/min | 9 | Unstable | N#Cc1ccc(F)c(CSc2nc(O)c(C#N)c3c2CCCC3)c1 | 
0 nmol/min | 238 (≈ 734 µM) | 0.01 nmol/min | 105 | 0 nmol/min | N#Cc1ncccc1CSc1nc(O)c(C#N)c2c1COCC2 | Tmax [5]: 4 h; AUC(0-t) at 8 h [6]: 2.9 µM·h; IC50 [7]: 3970 nM; Cmax [8]: 500 nM; half-life [12]: 0.05 h
0.12 nmol/min |  | 0.1 nmol/min | 14 | 0.05 nmol/min | N#Cc1c(=O)[nH]c(SCc2ccccc2Cl)c2ccc(F)cc12 | 
0 nmol/min |  | 0.16 nmol/min | 33 | 0.24 nmol/min | N#Cc1c(O)nc(SCC2CCC2)c2c1CCCC2 | 
0.09 nmol/min | 1 (≈ 2.9 µM) | 0 nmol/min | 7 | 0.04 nmol/min | N#Cc1c(O)nc(SCc2ccccc2Cl)c2cc(F)ccc12 | Tmax [5]: 4 h; AUC(0-t) at 8 h [6]: 15 µM·h; IC50 [7]: 2250 nM; Cmax [8]: 2900 nM
0.17 nmol/min | 1 (≈ 3.06 µM) | 0.2 nmol/min | 19 | 0.23 nmol/min | N#Cc1c(O)nc(SCc2ccccc2Cl)c2ccccc12 | 

From ChEMBL document CHEMBL1909577, “Discovery of 3-hydroxy-4-cyano-isoquinolines as novel, potent, and selective inhibitors of human 11β-hydroxydehydrogenase 1 (11β-HSD1)” (Bioorg Med Chem Lett, 2011)
